In patent US20200263213A1, “METHODS FOR INCREASING THE TOLERANCE OF MICROBIAL CELLS TOWARDS ANTHRANILIC ACID BY LIMITING THE AMOUNT OF AMMONIA IN THE CULTURE MEDIUM” (priority 2017, published 2020):

What was measured:
[1] = system: modified C. glutaomicum production strain; test: Evaluation of the maximum tolerable oAB concentration, batch cultivation in 1 L bioreactor (Example 1); format: cell-based, Corynebacterium glutaomicum
Method: FIG. 1: Evaluation of the maximum tolerable oAB concentration during batch cultivation in a 1 L lab-scale bioreactor with a modified C. glutaomicum production strain.
The maximum tolerable oAB concentration in the presence of sodium ions in the medium was tested with a modified C. glutaomicum production strain. This strain was derived from Corynebacterium glutaomicum ATCC 13032 by evolutionary engineering in order to increase its resistance against oAB. This strain was then genetically modified to make it capable of oAB-production and comprised the following modifications. The incorporated modifications have the effect of reduced expression of the trpD gene, encoding anthranilate phosphoribosyl transferase, knock out of gene ppc, encoding PEP Carboxylase, constitutive overexpression of heterologous aroG^D146N and trpEG^540F genes from E. coli, encoding feedback resistant DAHP synthase and anthranilate synthase, respectively, constitutive overexpression of the gene aroL from E. coli, encoding shikimate kinase.
Glucose was added as stock solution after 40 h, 48 h, 63 h, 65 and 71.5 h to prevent a glucose limitation.

[2] = system: C. glutomicum ATCC 13032; test: Metabolic activity after NH4-oAB and Na-oAB addition, batch cultivation in 1 L bioreactors (Example 3, FIG. 3); format: cell-based; details: for biomass accumulation after addition: 40 mL of 500 g/L oAB stock solution added after 6.4 h and 23.6 h, FIG. 3
From the text: From this it follows that the toxicity of oAB on C. glutomicum ATCC 13032 in presence of high sodium concentrations is reduced as compared to the toxicity in presence of high ammonium concentrations.

[3] = system: C. glutomicum strain derived from ATCC 13032 by evolutionary engineering; test: Metabolic activity after NH4-oAB and Na-oAB addition, batch cultivation in 1 L bioreactors (Example 2); format: cell-based, Corynebacterium glutomicum; details: 40 mL of 500 g/L oAB stock solution added at 7 h and 24 h; FIG. 2
Method: Both bioreactors: addition of 36 g/L glucose (added as stock solution) after 7.5 h and 24.5 h to prevent a glucose limitation.
A C. glutomicum strain derived from ATCC 13032 was used to compare the metabolic activity after NH4-oAB and Na-oAB addition during the cultivation. This strain was derived from Corynebacterium glutomicum ATCC 13032 by evolutionary engineering in order to increase its resistance against oAB. It was not further genetically modified. Thus it was not capable of oAB-production.

[4] = system: modified C. glutamicum production strain; details: for decrease of OTR signal after addition: 292 mmol salt (70 mL stock solution) added after 64 h, Na-oAB added before (4 x 20 mL of 500 g/L); for final dry weight concentration: after a cultivation time of 91 hours, salt added after 64 h in the presence of oAB

Row | Compound | biomass accumulation after addition [2] | OTR signal after addition [3] | biomass concentration after addition [3] | decrease of OTR signal after addition [4] | final dry weight concentration [4] [g/L] | other results
1 | Nc1ccccc1C(=O)O [oAB, 2-aminobenzoic acid] | – | – | – | – | – | oAB concentration at which an increase in biomass concentration was still observed ([1]; oAB added stepwise as sodium salt (dissolved with NaOH at pH 7), pH 7 controlled with NH4OH, 30° C.): 80 g/L; oAB concentration resulting in a decrease of the metabolic activity (declining OTR signal) and no further increase in biomass ([1]; oAB increased from 80 g/L after 71 h, added as sodium salt (dissolved with NaOH at pH 7)): 100 g/L
2 | N.Nc1ccccc1C(=O)O [NH4-oAB] | growth inhibition after 24 h | constant OTR signal | reduced biomass accumulation | – | – | o-aminobenzoate concentration at which cell growth (dry weight) stops ([2]; according to FIG. 3): > 50 g/L; o-aminobenzoate concentration at which the metabolic activity of bacterial cells (OTR) is limited ([2]; according to FIG. 3, concentration not including the mass of the cation): more than 25 g/L
3 | Nc1ccccc1C(=O)[O-].[Na+] [Na-oAB] | biomass accumulation continued | continued to increase | continued to increase | – | – | –
4 | Cl.N [NH4Cl] | – | – | – | about 20% | 6.8 | –
5 | [Cl-].[Na+] [NaCl] | – | – | – | no effect | 7.8 | –
